Measurements as given in paper PMC11969024, “Development of chemokine network inhibitors using combinatorial saturation mutagenesis” (Communications Biology, 2025).
Ends that are not written are not given here.

Key:
[1] = tested on: THP1 cells; assay: Chemokine dose-response, THP1 cell migration; format: cell-based, human; details: mean of biological replicates (2-7); for Mean pEC80: 3-parameter log-logistic fit, maximum fixed at 100%
Experimental: (§1) Cell lines were confirmed mycoplasma free by monthly testing using a MycoAlert^TM kit (LT07-118, Lonza) following the manufacturer’s instructions. THP1 cells: THP1 cells (ECACC 88081201, a human monocyte leukemia cell line[51]) were obtained from ECACC and were cultured in T175 flasks at 0.3-1 × 10^6 cells/mL in Roswell Park Memorial Institute (RPMI) 1640 medium (R0883, Sigma) with 10% FBS (F9665, Sigma) and 5mM L-glutamine (G7513, Sigma), 37 °C, 5% CO2. J:CXCR1 cells: The J:CXCR1 cell line was cultured in the same manner as THP1 cells at 0.15-1 × 10^6 cells per mL[37]. Activated T-cells: T-cells were isolated, activated and expanded as follows. Briefly, density gradient centrifugation using Lymphoprep^TM density gradient medium (07801, […] Technologies) and a SepMate^TM isolation tube (85450, […] Technologies) was used to isolate peripheral blood mononuclear cells from human leukocyte cones. Two rounds of purification using a human CD8 + T-cell isolation kit (480011, BioLegend) were used to isolate CD8 + T-cells from peripheral blood mononuclear cells. Activation of CD8 + T-cells was performed in ImmunoCult^TM-XF T-cell expansion medium (10982, […] Technologies) with an anti-CD3/anti-CD28 T-cell activator at 25 μl/ml (10991, […] Technologies), supplemented with 10 ng/ml recombinant human IL-2 (200-02, PeproTech) with 1% penicillin/streptomycin. T-cells were passaged every 2–3 days in TexMACS medium (130-097-196, Miltenyi Biotec), supplemented with 10 ng/ml human IL-2 (200-05-250, Peprotech) and incubated at 37 °C in 5% CO2. CD8 + T-cells were frozen at day 10-13 after initial activation, at 20×10^6 cell/ml in TexMACS medium supplemented with 10% DMSO (D2650, Sigma) in liquid nitrogen. Activated CD8^+ T-cells were recovered in TexMACs medium at 0.3 × 10^6 cell/ml and incubated at 37 °C in 5% CO2, 24 h prior to use. For buffy coat experiments a mixture of primary human monocytes, granulocytes and lymphocytes was isolated from human buffy coat. Briefly, RBCs were sedimented in HetaSep (07806, […] Technologies) with 1 mL of HetaSep per 5 mL of blood for 15 min at 37 °C. The buffy coat layer was collected from the top and washed in 50 ml MACS buffer (PBS (P4417, Sigma), 0.5% BSA (A7030, Sigma), 0.075% EDTA (E5134, Sigma), pH 7.2), by centrifugation at 2000 g for 10 min at room temperature. The pellet was resuspended in 10 mL of 1x RBC lysis solution (130-094-183, Miltenyi Biotec) and lysed for 10 min at room temperature. The cells were then washed in MACS buffer twice as above. The final pellet was resuspended in 1 mL of MACS buffer per 5 mL of initial blood volume and counted using cell size FSC-H/SSC-H parameters with gate settings previously defined by immunostaining (see below). The leukocytes were then resuspended in assay buffer for cell migration and used within 30 min of isolation.
(§2) Cell counts were determined using an ATTUNE NxT Flow Cytometer with Cytkick autosampler (ThermoFisher), based on cell size parameters FSC-H/SSC-H, with previously defined gate settings. FSC-H/SSC-H gate settings for primary white blood cells from buffy coats were determined using flow cytometry to establish the granulocyte, monocyte and lymphocyte populations (Supplementary Fig. 13). Briefly, cells were labelled with anti-CD3 (Miltenyi Biotec, 130-113-135) to identify the T cell population, anti-CD14 (Miltenyi Biotec, 130-110-578) to identify the monocyte population, and with anti-CD16 (Miltenyi Biotec, 130-113-951) to identify the granulocyte population. Negative control cells were labelled with anti-human IgG1 (Miltenyi Biotec, 130-113-434). All antibodies were allophycocyanin (APC) conjugated. 100,000 white blood cells were added to Eppendorf tubes and centrifuged at 300 g for 3 min. The supernatant was discarded, and the cells resuspended in 98 µL of MACS buffer (1× PBS, 2 mM EDTA and 0.5% BSA, sterile filtered). 2 µl of antibody was added to the cells. […]

[2] = tested on: activated T-cells (ATC); assay: Chemokine dose-response, activated T-cell (ATC) migration; format: cell-based, human; details: mean of biological replicates (3-6)
Experimental: as §1, §2

[3] = lyophilised peptide, data provided by the manufacturer, ref GenScript, cited from earlier work; for Solubility, Water: C-terminal amide
[4] = tested on: panel of 22 biotinylated chemokines; assay: Saturation (NNK) mutagenesis phage-display selection against biotinylated chemokines, enrichment by NGS; format: binding, human; details: two-sided Dunnett's test; for log2E compared to parental HD2, CXnC chemokines: 7 CXnC chemokines; for log2E compared to parental HD2, CC chemokines: 15 CC chemokines; for log2E compared to parental HD2, all chemokines: three selection rounds, 22 chemokines
Description: 81-mer mutant oligonucleotides replacing NNK at each of the 16 peptide encoding residues were designed with the sequence arms 5’-[…], and […]-3’ at respective ends to enable amplification and cloning. Oligonucleotides (Genscript) were individually amplified and cloned into plasmid prSTOP4Nsi (described in[37]). prSTOP4Nsi was amplified using primers (Sigma): […]
Oligonucleotides were amplified using primers (Sigma): oligo_fwd: 5’-[…] and oligo_rev2: 5’-[…]. The PCR products were cloned into prSTOP4Nsi plasmid using NEB Builder HiFi Assembly (E5520, NEB) following instructions of the manufacturer. The vector pool was used to transform electrocompetent ElectroMAX™ DH5α-E™ cells (11319019, Invitrogen). Plasmid DNA was harvested by MaxiPrep (GeneJet Plasmid Maxiprep Kit (K0491, Thermo Scientific)). DNA was transformed into SS320 phage display electrocompetent cells (60512, Lucigen), following the manufacturer’s protocol. Following electroporation, cells were resuspended in 950 μL recovery media and transferred to 50 mL Falcon tubes. 100 μL 10^11 CFU/mL M13KO7 helper phage (N0315S, NEB) was added, and tubes shaken at 37 °C, 220 RPM, 1 h. 1 mL recovery culture was added to 2YT medium containing +50ug/mL carbenicillin (C9231, Sigma) and 25ug/mL kanamycin (K1377, Sigma), and grown overnight at 37 °C, 220 RPM. Phage was precipitated from culture supernatant by adding 22.5 mL of supernatant to 4.5 mL 20% PEG 8000 (89510, Sigma)/2.5 M NaCl (S9625, Sigma), incubating on ice for 30 min, and centrifuging at 12857 g, 4 °C, 10 min. The phage pellet was resuspended in 1 mL of PBT (PBS (P4417, Sigma), BSA (A7030, Sigma) 0.20%, Tween 20 (P1379, Sigma) 0.05%). Undissolved particulate matter was removed by centrifugation at 15871 g, 4 °C, 10 min. Glycerol (G5516, Sigma, 10% final (v/v) was added, and aliquots stored at −80 °C. A schematic of phage-display library construction is provided in Supplementary Fig. 12.
Phage display screening was performed as described. Experiments were performed in 96-well plates (Greiner Bio-One, 655180). Biotinylated chemokines or complement C5A (1μg, Almac or Protein Foundry) were incubated overnight at 4 °C with shaking at 250 RPM with 5μl streptavidin-coated magnetic beads (Dynabeads™ M-280 Streptavidin, Invitrogen, 11205D) in 100 μl PBS. Chemokine-bound beads were blocked for two hours in 200μl blocking buffer (PBS (phosphate-buffered saline, Sigma, P4417) + 0.2% BSA (bovine serum albumin, Sigma, A7030) with shaking at 250 RPM. Phage library (100μL, 10^10 CFU/mL) was bound to blocked beads for two hours at room temperature with shaking at 250 RPM. Beads were washed 15 times with PT buffer (PBS + 0.05% Tween 20 (Sigma, P1379)) to remove unbound phage then transferred to a fresh plate. Beads were incubated with 100μL phage-resistant Omnimax E. coli (Invitrogen, A10469) at optical density (OD600) 0.6-0.8, shaken at 37 °C for 30 min. Following this 10 µL M13K07 helper phage (NEB, N0315S, final concentration 10^10 CFU/mL) was added and shaken at 37 °C for 45 min. Cells were transferred to 1 mL 2YT medium (at pH7, MP Biomedicals™, 113012031, supplemented with 150 µg/mL carbenicillin (Sigma, C9231) and 75 µg/mL kanamycin (Sigma, K1377) in a 96-deep well block with V-bottom (Corning, CLS3960) and grown with overnight shaking at 37 °C, 200 RPM. Plates were either centrifuged at 2000g (4 °C, 30 min) or transferred to screw cap tubes and pelleted by centrifugation at 4000 g and 4 °C for 15 min. 540 µL of supernatant was transferred to a new 96-deep well plate, 60 µL of 10×PBT (10×PBS + 2% BSA + 0.5% Tween 20) added and stored at 4 °C for subsequent rounds. Phage display was carried out for three rounds. A schematic of phage-display library screening is provided in Supplementary Fig. 12.
We amplified inserts from the input library and from the selected phage population directly from phage by PCR using primers: 5’-[…] and 5’-[…] (Life Technologies). […]

[5] = tested on: activated CD8+T-cells (ATC); assay: Activated T-cell (ATC) migration induced by individual chemokines, inhibition by peptide; format: cell-based, human; details: peptide 10 uM; chemokines at EC80; Dunnett's test
Experimental: as §1, §2

CCL2: human chemokine, Peprotech 300-04
Mean pEC80 [1]: 8.35 [M] | Mean pEC50 [1]: 8.73 [M]

CCL3: human chemokine, Peprotech 300-08
Mean pEC80 [1]: 9.31 [M] | Mean pEC50 [1]: 9.64 [M]

CCL5: human chemokine, Peprotech 300-06
Mean pEC80 [1]: 8.36 [M] | Mean pEC50 [1]: 8.65 [M]

CCL7: human chemokine, Peprotech 300-17
Mean pEC80 [1]: 8.02 [M] | Mean pEC50 [1]: 8.37 [M]

CCL19: human chemokine, Peprotech 300-29B
Mean pEC50 [2]: 7.91 [M] | Mean pEC80 [2]: 7.64 [M]

CXCL9: human chemokine, Peprotech 300-26
Mean pEC50 [2]: 7.40 [M] | Mean pEC80 [2]: 7.22 [M]

CXCL10: human chemokine, Peprotech 300-12
Mean pEC50 [2]: 7.87 [M] | Mean pEC80 [2]: 7.50 [M]

CXCL11: human chemokine, Peprotech 300-46
Mean pEC50 [2]: 8.25 [M] | Mean pEC80 [2]: 7.99 [M]

CXCL12: human chemokine, Peprotech 300-28A
Mean pEC50 [2]: 8.93 [M] | Mean pEC80 [2]: 8.54 [M]

DDDDWWDYAPLTCYFD [HD2CM526]
Solubility, Water [3]: Insoluble | Solubility, DMSO [3]: Soluble | Solubility, PBS [3]: Insoluble

DEDDWDAYAPIWCYFT-NH2 [HD2CM304]
Solubility, Water [3]: Insoluble | Solubility, DMSO [3]: Soluble | Solubility, PBS [3]: Insoluble

DEDDWDDYAPITCYFT-NH2 [HD2CM307]
Solubility, Water [3]: Insoluble | Solubility, DMSO [3]: Insoluble | Solubility, HCOOH [3]: Soluble | Solubility, PBS [3]: Insoluble

EEDDYDAYAPLTCYFT [HD2T6D, HD2 point mutant]
log2E compared to parental HD2, CXnC chemokines [4]: significant improvement | log2E compared to parental HD2, CC chemokines [4]: significant improvement | log2E compared to parental HD2, all chemokines [4]: significantly improved

EEDDYTAYAPITCYFT [HD2L11I, HD2 point mutant]
inhibition of CCL19, CCL21, CXCL9, and CXCL11-induced migration of ATCs compared to parental HD2 [5]: significant improvement in inhibition | log2E compared to parental HD2, CC chemokines [4]: significant improvement | log2E compared to parental HD2, all chemokines [4]: significantly improved

EEDDYTAYAPLTCYFT-NH2 [HD2]
Solubility, Water [3]: Insoluble | Solubility, DMSO [3]: Soluble | Solubility, PBS [3]: Insoluble

EEDDYTDYAPLTCYFT [HD2A7D, HD2 point mutant]
log2E compared to parental HD2, CXnC chemokines [4]: significant improvement | log2E compared to parental HD2, all chemokines [4]: significantly improved

TLETDTFYECPDAYAY [HD2SCR, reference compound]
Solubility, Water [3]: Insoluble | Solubility, DMSO [3]: Soluble | Solubility, PBS [3]: Insoluble
